PubChem BioAssay AID1918932 (Molecular Pharmacology Branch, DTP, NCI, 2023)
“And” between values parts separate entries of the source, which are not always exact repeats. Equal entries are not always repeated.

Tested on: 171881-019-R-J1-PDC complex spheroid viability
Test: Anticancer human tumor 171881-019-R-J1-PDC patient-derived invasive breast carcinoma cell line growth inhibition
Conditions: for viability, T/C: stronger effect = lower value
In short: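 Multicellular complex spheroids of tumor cells with human endothelial cells (HUVEC) and mesenchymal stem cells; the LSD1 inhibitor iadademstat was combined with standard-of-care or investigational agents. Top concentration at or near clinical Cmax, half-log dilutions; final DMSO ≤0.25%.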

[1] = curve of first compound, second compound 0.1 µM
[2] = curve of first compound, second compound 0.316 µM
[3] = curve of first compound, second compound 1 µM
[4] = curve of first compound, second compound 3.16 µM
[5] = curve of first compound, second compound 10 µM
[6] = second compound 0.1 µM, first compound 0.000316 µM
[7] = second compound 0.1 µM, first compound 0.001 µM
[8] = second compound 0.1 µM, first compound 0.00316 µM
[9] = second compound 0.1 µM, first compound 0.01 µM
[10] = second compound 0.1 µM, first compound 0.0316 µM
[11] = second compound 0.1 µM, first compound 0.1 µM
[12] = second compound 0.316 µM, first compound 0.000316 µM
[13] = second compound 0.316 µM, first compound 0.001 µM
[14] = second compound 0.316 µM, first compound 0.00316 µM
[15] = second compound 0.316 µM, first compound 0.01 µM
[16] = second compound 0.316 µM, first compound 0.0316 µM
[17] = second compound 0.316 µM, first compound 0.1 µM
[18] = second compound 1 µM, first compound 0.000316 µM
[19] = second compound 1 µM, first compound 0.001 µM
[20] = second compound 1 µM, first compound 0.00316 µM
[21] = second compound 1 µM, first compound 0.01 µM
[22] = second compound 1 µM, first compound 0.0316 µM
[23] = second compound 1 µM, first compound 0.1 µM
[24] = second compound 3.16 µM, first compound 0.000316 µM
[25] = second compound 3.16 µM, first compound 0.001 µM
[26] = second compound 3.16 µM, first compound 0.00316 µM
[27] = second compound 3.16 µM, first compound 0.01 µM
[28] = second compound 3.16 µM, first compound 0.0316 µM
[29] = second compound 3.16 µM, first compound 0.1 µM
[30] = second compound 10 µM, first compound 0.000316 µM
[31] = second compound 10 µM, first compound 0.001 µM
[32] = second compound 10 µM, first compound 0.00316 µM
[33] = second compound 10 µM, first compound 0.01 µM
[34] = second compound 10 µM, first compound 0.0316 µM
[35] = second compound 10 µM, first compound 0.1 µM
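Note: spheroids exposed to agents for 7 days after 3 days growth.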

CC(C)CC(NC(=O)C(Cc1ccccc1)NC(=O)c1cnccn1)B(O)O (stereo not drawn) + NC1CC1c1ccc(-c2cccc(O)c2)cc1
IC50 [1]: < 0.316 nM | IC50 [2]: < 0.316 nM | IC50 [3]: < 0.316 nM | IC50 [4]: < 0.316 nM | IC50 [5]: < 0.316 nM | viability, T/C [6]: 22.8% | viability, T/C [7]: 21.4% | viability, T/C [8]: 16.4% | viability, T/C [9]: 10.8% | viability, T/C [10]: 9.75% | viability, T/C [11]: 13.1% | viability, T/C [12]: 24.2% | viability, T/C [13]: 8.57% | viability, T/C [14]: 10.7% | viability, T/C [15]: 11% | viability, T/C [16]: 13.4% | viability, T/C [17]: 9.51% | viability, T/C [18]: 23.8% | viability, T/C [19]: 18.2% | viability, T/C [20]: 6.24% | viability, T/C [21]: 7.73% | viability, T/C [22]: 7.79% | viability, T/C [23]: 7.59% | viability, T/C [24]: 3.29% | viability, T/C [25]: 4.7% | viability, T/C [26]: 3.45% | viability, T/C [27]: 8.88% | viability, T/C [28]: 6.7% | viability, T/C [29]: 5.34% | viability, T/C [30]: 5.61% | viability, T/C [31]: 8.2% | viability, T/C [32]: 0.52% | viability, T/C [33]: 3.61% | viability, T/C [34]: 8.57% | viability, T/C [35]: 1.8%

CC(C)CC(NC(=O)CNC(=O)c1cc(Cl)ccc1Cl)B1OC(=O)CC(CC(=O)O)(C(=O)O)O1 (stereo not drawn)
viability, T/C (compound 0.000316 µM): 91.2% and 75.3% | viability, T/C (compound 0.001 µM): 105% and 52.1% | viability, T/C (compound 0.00316 µM): 48% and 33.7% | viability, T/C (compound 0.01 µM): 12.6% and 17.4% | viability, T/C (compound 0.0316 µM): 3.28% and 13.3% | viability, T/C (compound 0.1 µM): 0.97% and 15.7% | IC50 (curve of compound): 3.02 nM and 1.19 nM

CC(C)CC(NC(=O)CNC(=O)c1cc(Cl)ccc1Cl)B1OC(=O)CC(CC(=O)O)(C(=O)O)O1 (stereo not drawn) + NC1CCC(NC2CC2c2ccccc2)CC1
IC50 [1]: 3.66 nM | IC50 [2]: 3.22 nM | IC50 [3]: 3.66 nM | IC50 [4]: 3.84 nM | IC50 [5]: 3.71 nM | viability, T/C [6]: 87.4% | viability, T/C [7]: 86.8% | viability, T/C [8]: 54.9% | viability, T/C [9]: 13.2% | viability, T/C [10]: 3.51% | viability, T/C [11]: 4.11% | viability, T/C [12]: 84.8% | viability, T/C [13]: 83.8% | viability, T/C [14]: 49.8% | viability, T/C [15]: 11.8% | viability, T/C [16]: 3.3% | viability, T/C [17]: 1.04% | viability, T/C [18]: 79% | viability, T/C [19]: 82.2% | viability, T/C [20]: 54.5% | viability, T/C [21]: 13.6% | viability, T/C [22]: 3.7% | viability, T/C [23]: 1% | viability, T/C [24]: 91.7% | viability, T/C [25]: 90.8% | viability, T/C [26]: 57.1% | viability, T/C [27]: 12.4% | viability, T/C [28]: 3.26% | viability, T/C [29]: 0.97% | viability, T/C [30]: 86.1% | viability, T/C [31]: 94.2% | viability, T/C [32]: 56.2% | viability, T/C [33]: 8.46% | viability, T/C [34]: 1.96% | viability, T/C [35]: 0.65%

O=C(C=Cc1cccc(S(=O)(=O)Nc2ccccc2)c1)NO
viability, T/C (compound 0.00949 µM): 95.8% and 103% | viability, T/C (compound 0.03 µM): 96.6% and 93% | viability, T/C (compound 0.0949 µM): 111% and 99.2% | viability, T/C (compound 0.3 µM): 72.5% and 65.1% | viability, T/C (compound 0.949 µM): 0.88% and 1.85% | viability, T/C (compound 3 µM): 0.2% and 0.16% | IC50 (curve of compound): 430 nM and 395 nM

CC1COCCN1c1cc(C2(S(C)(=N)=O)CC2)nc(-c2ccnc3[nH]ccc23)n1 (stereo not drawn)
viability, T/C (compound 0.0316 µM): 94.6% and 94.9% | viability, T/C (compound 0.1 µM): 89.5% and 95.9% | viability, T/C (compound 0.316 µM): 98.2% and 91.3% | viability, T/C (compound 1 µM): 73% and 58.9% | viability, T/C (compound 3.16 µM): 17.2% and 21.2% | viability, T/C (compound 10 µM): 8.54% and 9.3% | IC50 (curve of compound): 1610 nM and 1330 nM

O=C(C=Cn1cnc(-c2cc(C(F)(F)F)cc(C(F)(F)F)c2)n1)NNc1cnccn1
viability, T/C (compound 0.00316 µM): 16.8% and 17.6% | viability, T/C (compound 0.01 µM): 12.1% and 12.7% | viability, T/C (compound 0.0316 µM): 4.83% and 4.44% | viability, T/C (compound 0.1 µM): 1.49% and 1.82% | viability, T/C (compound 0.316 µM): 1.62% and 1.88% | viability, T/C (compound 1 µM): 1.54% and 1.63% | IC50 (curve of compound): < 3.16 nM

Nc1ncn(C2CC(O)C(CO)S2)c(=O)n1 (stereo not drawn) + NC1CCC(NC2CC2c2ccccc2)CC1
IC50 [1]: 193 nM | IC50 [2]: 175 nM | IC50 [3]: 192 nM | IC50 [4]: 202 nM | IC50 [5]: 229 nM | viability, T/C (second compound 0.1 µM, first compound 0.000949 µM): 85.7% | viability, T/C (second compound 0.1 µM, first compound 0.003 µM): 82.5% | viability, T/C (second compound 0.1 µM, first compound 0.00949 µM): 94.3% | viability, T/C (second compound 0.1 µM, first compound 0.03 µM): 105% | viability, T/C (second compound 0.1 µM, first compound 0.0949 µM): 70.9% | viability, T/C (second compound 0.1 µM, first compound 0.3 µM): 37.2% | viability, T/C (second compound 0.316 µM, first compound 0.000949 µM): 91.2% | viability, T/C (second compound 0.316 µM, first compound 0.003 µM): 75.8% | viability, T/C (second compound 0.316 µM, first compound 0.00949 µM): 90.9% | viability, T/C (second compound 0.316 µM, first compound 0.03 µM): 116% | viability, T/C (second compound 0.316 µM, first compound 0.0949 µM): 66.4% | viability, T/C (second compound 0.316 µM, first compound 0.3 µM): 35.7% | viability, T/C (second compound 1 µM, first compound 0.000949 µM): 73.4% | viability, T/C (second compound 1 µM, first compound 0.003 µM): 84% | viability, T/C (second compound 1 µM, first compound 0.00949 µM): 94.8% | viability, T/C (second compound 1 µM, first compound 0.03 µM): 101% | viability, T/C (second compound 1 µM, first compound 0.0949 µM): 66.8% | viability, T/C (second compound 1 µM, first compound 0.3 µM): 39.3% | viability, T/C (second compound 3.16 µM, first compound 0.000949 µM): 85.1% | viability, T/C (second compound 3.16 µM, first compound 0.003 µM): 87.5% | viability, T/C (second compound 3.16 µM, first compound 0.00949 µM): 111% | viability, T/C (second compound 3.16 µM, first compound 0.03 µM): 109% | viability, T/C (second compound 3.16 µM, first compound 0.0949 µM): 66.6% | viability, T/C (second compound 3.16 µM, first compound 0.3 µM): 41.3% | viability, T/C (second compound 10 µM, first compound 0.000949 µM): 85.4% | viability, T/C (second compound 10 µM, first compound 0.003 µM): 90.8% | viability, T/C (second compound 10 µM, first compound 0.00949 µM): 98.8% | viability, T/C (second compound 10 µM, first compound 0.03 µM): 93.8% | viability, T/C (second compound 10 µM, first compound 0.0949 µM): 69.1% | viability, T/C (second compound 10 µM, first compound 0.3 µM): 44.1%

CC1(C)CCC(CN2CCN(c3ccc(C(=O)NS(=O)(=O)c4ccc(NCC5CCOCC5)c([N+](=O)[O-])c4)c(Oc4cnc5[nH]ccc5c4)c3)CC2)=C(c2ccc(Cl)cc2)C1 + NC1CCC(NC2CC2c2ccccc2)CC1
IC50 [1]: 2210 nM | IC50 [2]: 2300 nM | IC50 [3]: 2110 nM | IC50 [4]: 1720 nM | IC50 [5]: 2010 nM | viability, T/C [10]: 71.9% | viability, T/C [11]: 92.7% | viability, T/C (second compound 0.1 µM, first compound 0.316 µM): 68.4% | viability, T/C (second compound 0.1 µM, first compound 1 µM): 67.2% | viability, T/C (second compound 0.1 µM, first compound 3.16 µM): 42.7% | viability, T/C (second compound 0.1 µM, first compound 10 µM): 2.57% | viability, T/C [16]: 79.3% | viability, T/C [17]: 83.8% | viability, T/C (second compound 0.316 µM, first compound 0.316 µM): 68.4% | viability, T/C (second compound 0.316 µM, first compound 1 µM): 66.9% | viability, T/C (second compound 0.316 µM, first compound 3.16 µM): 44.4% | viability, T/C (second compound 0.316 µM, first compound 10 µM): 2.71% | viability, T/C [22]: 88.7% | viability, T/C [23]: 89.3% | viability, T/C (second compound 1 µM, first compound 0.316 µM): 73.8% | viability, T/C (second compound 1 µM, first compound 1 µM): 74.3% | viability, T/C (second compound 1 µM, first compound 3.16 µM): 37.9% | viability, T/C (second compound 1 µM, first compound 10 µM): 7.6% | viability, T/C [28]: 79.6% | viability, T/C [29]: 74.9% | viability, T/C (second compound 3.16 µM, first compound 0.316 µM): 78.7% | viability, T/C (second compound 3.16 µM, first compound 1 µM): 61.4% | viability, T/C (second compound 3.16 µM, first compound 3.16 µM): 35.7% | viability, T/C (second compound 3.16 µM, first compound 10 µM): 3.1% | viability, T/C [34]: 91.3% | viability, T/C [35]: 95.5% | viability, T/C (second compound 10 µM, first compound 0.316 µM): 76% | viability, T/C (second compound 10 µM, first compound 1 µM): 67.5% | viability, T/C (second compound 10 µM, first compound 3.16 µM): 39.5% | viability, T/C (second compound 10 µM, first compound 10 µM): 2.78%
